Results reported in US8962842B2, “2-pyridone antimicrobial compositions” (priority 2010, dated 2015).
pIC50: −log10 of the molar value. Like-named read-outs stand apart in the source and are kept apart here.

Experiments:
[1] = test system: Streptococcus pneumonia (5 strains); test: MIC range, broader panel of Quotient Bioresearch strains (Table 3); details: Streptococcus pneumoniae
[2] = test system: Burkholderia cepacia (5 strains); test: MIC range, broader panel of Quotient Bioresearch strains (Table 4); type: cell-based
[3] = molecular target: bacterial topoisomerase IV (Escherichia coli, UniProt P0AFI2+P20083); test: Inhibition of topoisomerases activity in vitro, Topogen protocol TG1007 (Table 7); type: biochemical
Chain of bacterial topoisomerase IV (P20083 whole entry): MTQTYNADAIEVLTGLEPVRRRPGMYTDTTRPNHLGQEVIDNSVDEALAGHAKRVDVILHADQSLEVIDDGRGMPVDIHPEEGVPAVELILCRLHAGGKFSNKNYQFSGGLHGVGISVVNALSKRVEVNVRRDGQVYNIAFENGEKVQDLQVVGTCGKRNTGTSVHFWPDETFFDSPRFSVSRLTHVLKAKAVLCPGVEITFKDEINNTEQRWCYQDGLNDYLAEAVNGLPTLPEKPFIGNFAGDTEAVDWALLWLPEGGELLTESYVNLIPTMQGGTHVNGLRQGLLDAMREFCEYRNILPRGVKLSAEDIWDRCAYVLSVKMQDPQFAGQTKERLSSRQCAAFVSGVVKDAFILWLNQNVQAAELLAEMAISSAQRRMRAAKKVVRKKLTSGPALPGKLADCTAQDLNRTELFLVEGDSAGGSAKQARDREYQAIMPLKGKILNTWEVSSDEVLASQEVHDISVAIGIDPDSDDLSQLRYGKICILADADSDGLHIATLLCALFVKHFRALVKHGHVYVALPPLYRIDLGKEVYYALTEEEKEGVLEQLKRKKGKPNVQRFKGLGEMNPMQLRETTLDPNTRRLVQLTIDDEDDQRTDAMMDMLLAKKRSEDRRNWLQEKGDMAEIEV
Chain of bacterial topoisomerase IV (P0AFI2 whole entry): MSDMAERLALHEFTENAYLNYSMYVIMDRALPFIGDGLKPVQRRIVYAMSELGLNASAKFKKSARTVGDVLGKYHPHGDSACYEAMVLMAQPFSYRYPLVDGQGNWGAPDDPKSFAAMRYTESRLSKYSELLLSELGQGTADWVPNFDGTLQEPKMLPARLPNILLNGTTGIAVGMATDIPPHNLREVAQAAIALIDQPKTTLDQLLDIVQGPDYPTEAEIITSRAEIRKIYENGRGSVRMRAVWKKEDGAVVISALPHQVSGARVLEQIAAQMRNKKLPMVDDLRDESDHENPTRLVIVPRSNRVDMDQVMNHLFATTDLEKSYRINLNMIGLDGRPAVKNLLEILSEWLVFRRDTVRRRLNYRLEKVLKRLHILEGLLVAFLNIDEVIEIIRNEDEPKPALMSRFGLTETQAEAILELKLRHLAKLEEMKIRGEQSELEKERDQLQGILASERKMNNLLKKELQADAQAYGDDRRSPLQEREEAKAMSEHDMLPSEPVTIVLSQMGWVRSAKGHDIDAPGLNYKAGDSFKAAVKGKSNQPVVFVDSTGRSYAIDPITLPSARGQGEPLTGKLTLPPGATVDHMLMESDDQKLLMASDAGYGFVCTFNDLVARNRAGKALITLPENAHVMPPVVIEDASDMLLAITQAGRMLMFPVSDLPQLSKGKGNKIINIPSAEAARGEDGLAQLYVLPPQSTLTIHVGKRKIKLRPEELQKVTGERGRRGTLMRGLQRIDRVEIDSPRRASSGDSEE

[4] = test system: Enterococcus faecalis (5 strains); test: MIC range, broader panel of Quotient Bioresearch strains (Table 3)
[5] = test system: Acinetobacter baumannii (12 strains); test: MIC range, broader panel of Quotient Bioresearch strains (Table 4); type: cell-based
bacterial gyrase = bacterial gyrase (Escherichia coli, UniProt P0AES4+P0AES6); test: Inhibition of topoisomerases activity in vitro, Topogen protocol TG1003 (Table 7); type: biochemical
Chain of bacterial gyrase (P0AES4 whole entry, one chain of several): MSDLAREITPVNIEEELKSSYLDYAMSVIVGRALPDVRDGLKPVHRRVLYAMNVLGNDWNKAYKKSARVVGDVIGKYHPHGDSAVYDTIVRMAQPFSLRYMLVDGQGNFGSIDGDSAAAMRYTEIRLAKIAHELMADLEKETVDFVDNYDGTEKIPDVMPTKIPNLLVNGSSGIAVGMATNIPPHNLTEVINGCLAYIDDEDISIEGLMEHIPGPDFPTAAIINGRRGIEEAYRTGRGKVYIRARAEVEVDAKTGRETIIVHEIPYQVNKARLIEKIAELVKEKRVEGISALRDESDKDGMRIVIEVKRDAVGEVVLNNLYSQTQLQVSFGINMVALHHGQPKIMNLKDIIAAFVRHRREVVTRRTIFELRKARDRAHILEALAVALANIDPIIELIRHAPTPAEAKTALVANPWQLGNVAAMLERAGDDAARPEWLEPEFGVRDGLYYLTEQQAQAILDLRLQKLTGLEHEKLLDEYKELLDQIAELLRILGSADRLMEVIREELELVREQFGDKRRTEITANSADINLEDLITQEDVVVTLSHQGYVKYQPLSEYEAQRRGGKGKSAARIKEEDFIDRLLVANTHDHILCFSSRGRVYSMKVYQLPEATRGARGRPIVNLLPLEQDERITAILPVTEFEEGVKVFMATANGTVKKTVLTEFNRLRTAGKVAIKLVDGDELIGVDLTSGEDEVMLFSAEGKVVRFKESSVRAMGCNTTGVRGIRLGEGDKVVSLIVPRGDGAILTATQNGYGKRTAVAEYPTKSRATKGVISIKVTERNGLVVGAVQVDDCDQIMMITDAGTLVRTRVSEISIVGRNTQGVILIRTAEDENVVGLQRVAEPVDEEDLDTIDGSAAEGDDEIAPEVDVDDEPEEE

[6] = test system: Escherichia coli (6 strains); test: MIC range, broader panel of Quotient Bioresearch strains (Table 4); type: cell-based
[7] = test system: Staphylococcus aureus (16 strains); test: MIC range, broader panel of Quotient Bioresearch strains (Table 3)
[8] = test system: Klebsiella pneumonia (4 strains); test: MIC range, broader panel of Quotient Bioresearch strains (Table 4); type: cell-based; details: Klebsiella pneumoniae
[9] = test system: Group C Streptococcus (4 strains); test: MIC range, broader panel of Quotient Bioresearch strains (Table 3)
[10] = test system: Enterococcus faecium (3 strains); test: as above
[11] = test system: Streptococcus pyogenes (4 strains); test: as above
physchem = type: physicochemical; details: thermodynamic from solid
Description: The solutions were incubated at room temperature for 24 hours before quantification by HPLC detection. Aqueous solubility was evaluated in simulated gastric fluid (SGF), simulated intestinal fluid (SIF) and phosphate buffer saline (PBS) pH 7.4. Aqueous solubility is expressed in Table 11 as mean solubility in μM.

[12] = test system: Pseudomonas aeruginosa (12 strains); test: MIC range, broader panel of Quotient Bioresearch strains (Table 4); type: cell-based
[13] = Metabolic stability in liver microsomes +/- S9 fraction (Table 8); type: in vitro ADME; details: 1 μM
Description: Metabolic stability of a select number of examples was tested in liver microsomes+/−addition of S9 fraction as described by Kuhnz, W. and Gieschen, H. (1998), Drug Metab. Dispos., 1120-1127. Test concentration was 1 μM and HPLC/MS-MS was used for detection.

[14] = test system: Haemophilus influenza (5 strains); test: MIC range, broader panel of Quotient Bioresearch strains (Table 4); type: cell-based, Haemophilus influenzae
[15] = test system: Acinetobacter baumannii, quinolone-resistant strains (Quotient Bioresearch catalogue); test: MIC against pathogens resistant against quinolones (Table 5); type: cell-based; details: Acinetobacter baumannii, GN54

In the case of `Cc1c(-c2ccc(N)c(F)c2)ccn2c(=O)c(C(=O)[O-])cc(C3CC3)c12.[K+]` [Example 2 K salt, potassium 8-(4-amino-3-fluoro-phenyl)-1-cyclopropyl-9-methyl-4-oxo-4H-quinolizine-3-carboxylate], the MIC ([1]; read-out: MIC Range Low, Streptococcus pneumonia (5 strains)) was 0.06 µg/mL, the MIC50 ([1]; read-out: MIC Range Median, Streptococcus pneumonia (5 strains)) was 0.12 µg/mL and the MIC ([2]; read-out: MIC Range High, Burkholderia cepacia (5 strains)) was 0.25 µg/mL. For the same compound, the MIC ([2]; read-out: MIC Range Low, Burkholderia cepacia (5 strains)) was 0.06 µg/mL, the MIC50 ([2]; read-out: MIC Range Median, Burkholderia cepacia (5 strains)) was 0.12 µg/mL and the pIC50 [3] was 5.35. For the same compound, the MIC ([4]; read-out: MIC Range High, Enterococcus faecalis (5 strains)) was 1 µg/mL, the MIC ([4]; read-out: MIC Range Low, Enterococcus faecalis (5 strains)) was ≤ 0.015 µg/mL and the MIC50 ([4]; read-out: MIC Range Median, Enterococcus faecalis (5 strains)) was 0.03 µg/mL. It also gave an MIC ([5]; read-out: MIC Range High, Acinetobacter baumannii (12 strains)) of 16 µg/mL, an MIC ([5]; read-out: MIC Range Low, Acinetobacter baumannii (12 strains)) of 0.06 µg/mL and an MIC50 ([5]; read-out: MIC Range Median, Acinetobacter baumannii (12 strains)) of 6 µg/mL. The pIC50 (bacterial gyrase) was ≥ 5.85, the MIC ([6]; read-out: MIC Range High, Escherichia coli (6 strains)) was 16 µg/mL and the MIC ([6]; read-out: MIC Range Low, Escherichia coli (6 strains)) was ≤ 0.015 µg/mL. The MIC50 ([6]; read-out: MIC Range Median, Escherichia coli (6 strains)) was 16 µg/mL, the MIC ([7]; read-out: MIC Range High, Staphylococcus aureus (16 strains)) was 0.25 µg/mL and the MIC ([7]; read-out: MIC Range Low, Staphylococcus aureus (16 strains)) was ≤ 0.015 µg/mL. It also gave an MIC50 ([7]; read-out: MIC Range Median, Staphylococcus aureus (16 strains)) of 0.06 µg/mL, an MIC ([8]; read-out: MIC Range High, Klebsiella pneumonia (4 strains)) of 16 µg/mL and an MIC ([8]; read-out: MIC Range Low, Klebsiella pneumonia (4 strains)) of 0.12 µg/mL. The MIC50 ([8]; read-out: MIC Range Median, Klebsiella pneumonia (4 strains)) was 10 µg/mL, the MIC ([9]; read-out: MIC Range High, Group C Streptococcus (4 strains)) was 0.12 µg/mL and the MIC ([9]; read-out: MIC Range Low, Group C Streptococcus (4 strains)) was 0.03 µg/mL. For the same compound, the MIC50 ([9]; read-out: MIC Range Median, Group C Streptococcus (4 strains)) was 0.06 µg/mL, the MIC ([10]; read-out: MIC Range Low, Enterococcus faecium (3 strains)) was 0.12 µg/mL and the MIC50 ([10]; read-out: MIC Range Median, Enterococcus faecium (3 strains)) was 0.5 µg/mL. The MIC ([11]; read-out: MIC Range High, Streptococcus pyogenes (4 strains)) was 0.12 µg/mL, the MIC ([11]; read-out: MIC Range Low, Streptococcus pyogenes (4 strains)) was 0.06 µg/mL and the MIC50 ([11]; read-out: MIC Range Median, Streptococcus pyogenes (4 strains)) was 0.09 µg/mL. The solubility at 24 h (physchem; fassgf or other biorelevant) was 171 µM, the solubility at 24 h (physchem; pH 7.4, aqueous buffer) was 28 µM and the solubility at 24 h (physchem; simulated gastric fluid) was 21 µM. It also gave an MIC ([12]; read-out: MIC Range High, Pseudomonas aeruginosa (12 strains)) of 16 µg/mL, an MIC ([12]; read-out: MIC Range Low, Pseudomonas aeruginosa (12 strains)) of 0.5 µg/mL and an MIC50 ([12]; read-out: MIC Range Median, Pseudomonas aeruginosa (12 strains)) of 4 µg/mL. The “Mean Parent Remaining” value ([13]; Liver microsomes + S9, human) was 95%, the “Mean Parent Remaining” value ([13]; Liver microsomes + S9, mouse) was 58% and the “Mean Parent Remaining” value ([13]; Liver microsomes, human) was 90%. For the same compound, the “Mean Parent Remaining” value ([13]; Liver microsomes, mouse) was 53%, the MIC50 ([14]; 16 h, Median of the strain panel) was ≤ 0.015 µg/mL and the MIC ([14]; High of the strain panel, read-out: MIC Range High, Haemophilus influenza (5 strains)) was ≤ 0.015 µg/mL. For the same compound, the MIC ([14]; Low of the strain panel, read-out: MIC Range Low, Haemophilus influenza (5 strains)) was ≤ 0.015 µg/mL and the MIC [15] was 2 µg/mL.
